The nature of data set [1]: Selectivity index, ratio of CC50 for cytotoxicity against MDCK cells assessed as reduction in cell viability to IC50 for antiviral activity against Influenza A virus A/HK/1/68 infected in MDCK cells MOI 0.01 assessed as inhibition of viral growth. The data set is classed as toxicity, cell-based. As to conditions: dog, read-out: Ratio CC50/IC50.
For data set [2], the target named is Polymerase acidic protein (Influenza A virus (A/Puerto Rico/8/1934(H1N1)), UniProt P03433). The data set can be described thus: Binding affinity to C-terminal Influenza A virus Polymerase acidic protein assessed as dissociation constant by MST assay.
Data set [3] relates to Influenza A virus. The data set can be described thus: Antiviral activity against Influenza A virus A/WSN/33(H1N1) infected in chicken erythrocytes assessed as reduction in neuraminidase level incubated for 2 hrs. Type of data set: functional, organism-based. To be noted: Erythrocyte.
In the next data set the target is Nucleoprotein (Influenza A virus (strain A/Wilson-Smith/1933 H1N1), UniProt P15682). The data set can be described thus: Binding affinity to Influenza A virus Nucleoprotein assessed as dissociation constant by MST assay.
Data set [4] in a line: Selectivity index, ratio of CC50 for cytotoxicity against MDCK cells assessed as reduction in cell viability to IC50 for antiviral activity against Influenza A virus B/Florida/4/06 infected in MDCK cells MOI 0.01 assessed as inhibition of viral growth. The data set is classed as toxicity, cell-based. As to conditions: dog, read-out: Ratio CC50/IC50.
Data set [5] deals with Influenza A virus. The data set can be described thus: Antiviral activity against Influenza A virus A/WSN/33(H1N1) infected in MDCK cells MOI 0.1 assessed as reduction in viral titre at 12 uM pre-infected with cells for 6 hrs followed by compound addition and measured after 2 to 4 hrs post infection by time of addition assay. Type of data set: functional, organism-based.
For data set [6], the system named is Influenza A virus. The data set can be described thus: Antiviral activity against Influenza A virus A/WSN/33(H1N1) infected in MDCK cells assessed as reduction in virus-induced cytopathic effect at 12.5 uM pre-infected with cells for 1 hrs followed by compound addition and measured after 2 days by MTT assay. The data set is classed as functional, organism-based. To be noted: time 2.0 day. (In general: Cytopathic effects are the visible damage that an infection or toxin causes in cultured cells.)

Data set [7] in a line: Cytotoxicity against MDCK cells assessed as reduction in cell viability incubated for 48 hrs by MTT assay. The data set is classed as toxicity, cell-based, Canis lupus familiaris. As to conditions: dog. For orientation: Formazan colour is commonly taken as a measure of viable cells.
A short description of data set [8]: Selectivity index, ratio of CC50 for cytotoxicity against MDCK cells assessed as reduction in cell viability to IC50 for antiviral activity against Influenza A virus A/WSN/33(H1N1) infected in MDCK cells assessed as inhibition of viral growth. To be noted: dog, read-out: Ratio CC50/IC50. Type of data set: toxicity, cell-based.
Data set [9] relates to Influenza A virus. The data set can be described thus: Antiviral activity against Influenza A virus A/WSN/33(H1N1) infected in MDCK cells MOI 0.1 assessed as reduction in viral titre at 12.5 uM pre-infected with cells for 6 hrs followed by compound addition and measured after 2 hrs post infection by time of addition assay. The data set is classed as functional, organism-based.

In data set [10] the test system is Influenza A virus. The data set can be described thus: Antiviral activity against Influenza A virus A/WSN/33(H1N1) infected in MDCK cells MOI 0.1 assessed as reduction in viral titre at 12.5 uM pre-infected with cells for 6 hrs followed by compound addition and measured after 6 to 8 hrs post infection by time of addition assay. Type of data set: functional, organism-based.

Data set [11] can be described thus: Selectivity index, ratio of CC50 for cytotoxicity against MDCK cells assessed as reduction in cell viability to IC50 for antiviral activity against Influenza A virus A/PR/8/34 infected in MDCK cells MOI 0.01 assessed as inhibition of viral growth. The data set is classed as toxicity, cell-based. To be noted: dog, read-out: Ratio CC50/IC50.
In data set [12] the test system is Influenza A virus. The data set can be described thus: Antiviral activity against Influenza A virus A/WSN/33(H1N1) infected in chicken erythrocytes assessed as reduction in Haemagglutinin level preincubated for 30 mins followed by viral infection and measured after 40 mins. The data set is classed as functional, organism-based. As to conditions: Erythrocyte, time 70.0 min.

The nature of data set [13]: Selectivity index, ratio of CC50 for cytotoxicity against African green monkey Vero cells assessed as reduction in cell viability to IC50 for inhibition of Influenza A virus A/WSN/33(H1N1) Ribonucleoprotein transfected in Vero cells. The data set is classed as toxicity, cell-based. As to conditions: read-out: Ratio CC50/IC50.
Data set [14] in a line: Cytotoxicity against African green monkey Vero cells assessed as reduction in cell viability incubated for 48 hrs by MTT assay. As to conditions: chlorocebus sabaeus. Type of data set: toxicity, cell-based.
Data set [15] has as its system Influenza A virus. The data set can be described thus: Antiviral activity against Influenza A virus A/WSN/33(H1N1) infected in MDCK cells MOI 0.1 assessed as reduction in viral titre at 12.5 uM pre-infected with cells for 6 hrs followed by compound addition and measured after 4 to 6 hrs post infection by time of addition assay. Type of data set: functional. The arrangement: scale not given: the % may be the effect or the level left.

The test system of data set [16] is Influenza A virus. The data set can be described thus: Antiviral activity against Influenza A virus A/HK/1/68 infected in MDCK cells MOI 0.01 assessed as inhibition of viral growth pre-infected for 1 hr followed by compound addition and measured 24 hrs post infection by plaque assay. Type of data set: functional, organism-based. To be noted: A/HK/1/68, MDCK.
The test system of data set [17] is Influenza A virus. The data set can be described thus: Antiviral activity against Influenza A virus B/Florida/4/06 infected in MDCK cells MOI 0.01 assessed as inhibition of viral growth pre-infected for 1 hr followed by compound addition and measured 24 hrs post infection by plaque assay. The data set is classed as functional, organism-based. As to conditions: B/Florida/4/06, MDCK.

The nature of data set [18]: Inhibition of Influenza A virus A/WSN/33(H1N1) Ribonucleoprotein transfected in Vero cells incubated for 48 hrs by spectrophotometer analysis. The data set is classed as cell-based.
The test system of data set [19] is Influenza A virus. The data set can be described thus: Antiviral activity against Influenza A virus A/WSN/33(H1N1) infected in MDCK cells MOI 0.1 assessed as inhibition of viral growth at 12.5 uM pre-infected with cells for 6 hrs followed by compound addition and measured after 2 to 4 hrs post infection by time of addition assay. The data set is classed as functional, organism-based.

Data set [20] relates to Influenza A virus. The data set can be described thus: Antiviral activity against Influenza A virus A/PR/8/34 infected in MDCK cells MOI 0.01 assessed as inhibition of viral growth pre-infected for 1 hr followed by compound addition and measured 24 hrs post infection by plaque assay. Type of data set: functional, organism-based. As to conditions: A/PR/8/34, MDCK.
The subject of data set [21] is Influenza A virus. The data set can be described thus: Antiviral activity against Influenza A virus A/WSN/33(H1N1) infected in MDCK cells assessed as inhibition of viral growth pre-infected for 1 hr followed by compound addition and measured 24 hrs post infection by plaque assay. The data set is classed as functional, organism-based.
The subject of data set [22] is Influenza A virus. The data set can be described thus: Antiviral activity against Influenza A virus A/WSN/33(H1N1) infected in MDCK cells MOI 0.1 assessed as reduction in viral titre at 100 uM pre-infected with cells for 6 hrs followed by compound addition and measured after 6 to 8 hrs post infection by time of addition assay. Type of data set: functional, organism-based.

Data set [23] deals with Influenza A virus. The data set can be described thus: Antiviral activity against Influenza A virus A/WSN/33(H1N1) infected in MDCK cells assessed as reduction in virus-induced cytopathic effect at 25 uM pre-infected with cells for 1 hrs followed by compound addition and measured after 2 days by MTT assay. To be noted: time 2.0 day. Type of data set: functional, organism-based.

Data set [24] relates to Influenza A virus. The data set can be described thus: Antiviral activity against Influenza A virus A/WSN/33(H1N1) infected in MDCK cells MOI 0.1 assessed as reduction in viral titre at 100 uM pre-infected with cells for 6 hrs followed by compound addition and measured after 2 to 4 hrs post infection by time of addition assay. The data set is classed as functional, organism-based.

In data set [25] the test system is Influenza A virus. The data set can be described thus: Antiviral activity against Influenza A virus A/WSN/33(H1N1) infected in MDCK cells MOI 0.1 assessed as reduction in viral titre at 100 uM pre-infected with cells for 6 hrs followed by compound addition and measured after 2 hrs post infection by time of addition assay. Type of data set: functional, organism-based.

The test system of data set [26] is Influenza A virus. The data set can be described thus: Antiviral activity against Influenza A virus A/WSN/33(H1N1) infected in MDCK cells MOI 0.1 assessed as reduction in viral titre at 100 uM pre-infected with cells for 6 hrs followed by compound addition and measured after 4 to 6 hrs post infection by time of addition assay. The data set is classed as functional, organism-based.

The test system of data set [27] is Influenza A virus. The data set can be described thus: Antiviral activity against Influenza A virus A/WSN/33(H1N1) infected in MDCK cells assessed as inhibition of viral growth at 100 uM pre-infected for 1 hr followed by compound addition and measured 24 hrs post infection by plaque assay relative to control. The data set is classed as functional. As to conditions: time 23 hrs.

The test system of data set [28] is Influenza A virus. The data set can be described thus: Antiviral activity against Influenza A virus A/WSN/33(H1N1) infected in MDCK cells assessed as reduction in virus-induced cytopathic effect at 100 uM pre-infected with cells for 1 hrs followed by compound addition and measured after 2 days by MTT assay. To be noted: time 2.0 day. The data set is classed as functional, organism-based.

Active and inactive are the calls of the source. The calls are words filed in the database; no cut-off is given here.

Chain of Nucleoprotein (P15682 whole entry): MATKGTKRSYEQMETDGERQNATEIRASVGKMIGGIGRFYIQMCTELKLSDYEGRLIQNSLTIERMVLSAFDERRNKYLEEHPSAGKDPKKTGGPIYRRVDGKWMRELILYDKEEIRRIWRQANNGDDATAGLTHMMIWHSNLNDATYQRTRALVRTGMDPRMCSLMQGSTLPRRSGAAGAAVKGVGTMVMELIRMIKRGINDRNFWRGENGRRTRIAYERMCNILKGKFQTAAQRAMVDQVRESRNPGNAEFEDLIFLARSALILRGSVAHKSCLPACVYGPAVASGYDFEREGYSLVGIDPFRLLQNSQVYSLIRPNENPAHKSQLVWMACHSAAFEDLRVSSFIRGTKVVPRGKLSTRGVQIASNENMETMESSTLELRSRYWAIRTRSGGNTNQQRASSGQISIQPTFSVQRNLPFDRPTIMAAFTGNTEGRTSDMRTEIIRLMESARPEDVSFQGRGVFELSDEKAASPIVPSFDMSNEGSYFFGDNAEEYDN

As usually defined, the Kd is the equilibrium constant for the complex coming apart. The term CC50 denotes the concentration giving 50% cytotoxicity. Broadly, the IC50 is the point on the concentration scale where inhibition reaches its midpoint. The inhibition is how much of the control response was suppressed. Turning to `O=C(NCCCN1CCOCC1)c1ccccc1Nc1ccnc2ccc(Cl)cc12`, the selectivity ratio in [1] is over 15; in data set [4] it was over 15; in [8], over 16; in [11], over 13; in data set [13], over 3. Also, the Kd in [2] was found to be 28.8 µM; on Nucleoprotein, 33 µM. For the same molecule, the outcome with Influenza A virus [3], in the data set on Influenza A virus [10] and with Influenza A virus [12] was inactive. Moreover, the result with Influenza A virus [5], in the data set on Influenza A virus [6] and in the data set on Influenza A virus [9] was Active. The values for the CC50 at 48 h in data set [7] and in data set [14] were over 50 µM and 31.4 µM, respectively. Further, in the data set on Influenza A virus [15], the Activity came to 5%. For the same molecule, the IC50 was 3.31 µM in the data set with Influenza A virus [16]; 3.32 µM in the data set with Influenza A virus [17]; 11.8 µM in data set [18]; 3.94 µM with Influenza A virus [20]; 3.21 µM in the data set on Influenza A virus [21]. In addition, the inhibition result with Influenza A virus [19] was “Active”.

In the case of `O=C(Nc1cccc([N+](=O)[O-])c1)c1ccccc1Nc1ccnc2cc(C(F)(F)F)ccc12`, the selectivity ratio is over 12 in [1]; over 8 in [4]; over 18 in [8]; over 18 in data set [11]; over 7 in data set [13]. For the same molecule, the outcome with Influenza A virus [22], in the data set with Influenza A virus [3] and in the data set on Influenza A virus [12] was inactive. Also, the outcome in the data set with Influenza A virus [23], in the data set on Influenza A virus [24], with Influenza A virus [25] and with Influenza A virus [26] was Active. The CC50 at 48 h in data set [7] and in data set [14] was over 100 µM each time. Moreover, the IC50 with Influenza A virus [16] was found to be 8.5 µM; in the data set on Influenza A virus [17], 12 µM; in [18], 14 µM; in the data set with Influenza A virus [20], 5.5 µM; in the data set with Influenza A virus [21], 5.53 µM. In addition, in the data set with Influenza A virus [27], the inhibition at 100 µM was 99.8%.

For the molecule `O=C(O)c1ccccc1Nc1ccnc2cc(C(F)(F)F)ccc12`, the selectivity ratio in [1] is over 4; in data set [4], over 4; in data set [8], over 15; in data set [11] it was over 9; in data set [13], over 10. Besides, the result in the data set with Influenza A virus [22], in the data set on Influenza A virus [3] and with Influenza A virus [12] was inactive. Also, the Kd in data set [2] was 8.36 µM; on Nucleoprotein, 20.4 µM. For the same molecule, the result in the data set on Influenza A virus [24], in the data set on Influenza A virus [25], with Influenza A virus [26] and in the data set on Influenza A virus [28] was Active. Moreover, the CC50 at 48 h in [7] is over 100 µM; in [14] it was over 200 µM. For the same molecule, the IC50 was determined as 27.8 µM in the data set with Influenza A virus [16]; 22.3 µM in the data set on Influenza A virus [17]; 19.2 µM in [18]; 11.3 µM in the data set with Influenza A virus [20]; 6.73 µM in the data set with Influenza A virus [21]. Further, the inhibition at 100 µM in the data set with Influenza A virus [27] worked out at 97.3%.

Values taken from ChEMBL document CHEMBL5625251, “Anti-influenza virus activities and mechanism of antrafenine analogs” (Eur J Med Chem, 2023).
